Experimental data published in PubChem BioAssay (NCI).
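All cell lines were grown in 96-well plates and treated with compound for 48 hours. GI50: concentration for 50% inhibition of growth. At the TGI there is no net growth.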 Where a SMILES comes first, the peptide text is derived from it.

How the values were obtained:
Assay in all cases: growth of human tumour cells (NCI), 48 h
786-0 renal = tested on: 786-0 renal
EKVX NSCLC = tested on: EKVX NSCLC
HOP-62 NSCLC = tested on: HOP-62 NSCLC
DU-145 prostate = tested on: DU-145 prostate
PC-3 prostate = tested on: PC-3 prostate
SNB-19 CNS = tested on: SNB-19 CNS
OVCAR-8 ovarian = tested on: OVCAR-8 ovarian
NCI-H226 lung = tested on: NCI-H226 lung
SF-295 CNS = tested on: SF-295 CNS
SNB-75 CNS = tested on: SNB-75 CNS

`C=C1C(=O)O[C@@H]2C(=O)[C@@H](C)[C@@H]3C=CC(=O)[C@@]3(C)[C@@H](OC(=O)/C(C)=C\C)[C@H]12` showed a TGI (786-0 renal) of 1 µM, a TGI (EKVX NSCLC) of 2.53 µM and a TGI (HOP-62 NSCLC) of 24.8 µM. The TGI (DU-145 prostate) was 3.5 µM, the TGI (PC-3 prostate) was 6.04 µM and the TGI (SNB-19 CNS) was 25.9 µM. For the same molecule, the TGI (OVCAR-8 ovarian) was 12 µM, the TGI (NCI-H226 lung) was 8.36 µM and the TGI (SF-295 CNS) was 27.4 µM. It also gave a TGI (SNB-75 CNS) of 19.9 µM.

In the case of `CC(C)CC(NC(=O)C(CC(C)C)NC(=O)C(Cc1cnc[nH]1)NC(=O)C(C)NC(=O)C(NC(=O)C(C)NC(=O)C(Cc1c[nH]c2ccccc12)NC(=O)C(CCC(=O)O)NC(=O)C(N)Cc1ccccc1)C(C)C)C(N)=O` (stereo not given) (H-FEWAVAHLL-NH2; configuration not given here), the GI50 (786-0 renal) is reported as over 100 µM, the TGI (786-0 renal) is reported as over 100 µM and the GI50 (EKVX NSCLC) is reported as over 100 µM. The TGI (EKVX NSCLC) was over 100 µM, the GI50 (HOP-62 NSCLC) was over 100 µM and the TGI (HOP-62 NSCLC) was over 100 µM. It also gave a TGI (DU-145 prostate) of over 12.5 µM, a TGI (PC-3 prostate) of over 12.5 µM and a TGI (SNB-19 CNS) of over 100 µM. The GI50 (OVCAR-8 ovarian) was over 100 µM, the TGI (OVCAR-8 ovarian) was over 100 µM and the TGI (NCI-H226 lung) was over 12.5 µM. The GI50 (SF-295 CNS) was over 100 µM, the TGI (SF-295 CNS) was over 100 µM and the TGI (SNB-75 CNS) was over 100 µM.

With `C#CCN=C(N/N=C/c1ccc([N+](=O)[O-])o1)NS(=O)(=O)c1cc(C)c(Cl)cc1SCC(N)=O` the GI50 (786-0 renal) was 19.4 µM, the TGI (786-0 renal) was 36.5 µM and the GI50 (EKVX NSCLC) was 17.8 µM. For the same molecule, the TGI (EKVX NSCLC) was 32.2 µM, the GI50 (HOP-62 NSCLC) was 12.9 µM and the TGI (HOP-62 NSCLC) was 25.7 µM. The GI50 (DU-145 prostate) was 11.6 µM, the TGI (DU-145 prostate) was 24.5 µM and the GI50 (PC-3 prostate) was 20.4 µM. For the same molecule, the TGI (PC-3 prostate) was 38.7 µM, the GI50 (SNB-19 CNS) was 50.6 µM and the TGI (SNB-19 CNS) was over 100 µM. It also gave a GI50 (OVCAR-8 ovarian) of 13.8 µM, a TGI (OVCAR-8 ovarian) of 29.6 µM and a GI50 (NCI-H226 lung) of 20.1 µM. It also gave a TGI (NCI-H226 lung) of 40.5 µM, a GI50 (SF-295 CNS) of 22.8 µM and a TGI (SF-295 CNS) of 47.1 µM. The GI50 (SNB-75 CNS) was 25.8 µM and the TGI (SNB-75 CNS) was 59.8 µM.

For `COc1ccc(/C(C)=C(\c2ccc(Cl)cc2)c2ccc(OCCN3CCCC3)cc2)cc1F`, the GI50 (786-0 renal) was 3.39 µM, the TGI (786-0 renal) was 7.02 µM and the GI50 (EKVX NSCLC) was 3.73 µM. It also gave a TGI (EKVX NSCLC) of 7.27 µM, a GI50 (HOP-62 NSCLC) of 3.92 µM and a TGI (HOP-62 NSCLC) of 8.22 µM. The GI50 (DU-145 prostate) was 3.9 µM, the TGI (DU-145 prostate) was 8.28 µM and the GI50 (PC-3 prostate) was 3.04 µM. For the same molecule, the TGI (PC-3 prostate) was 6.71 µM, the GI50 (SNB-19 CNS) was 3.87 µM and the TGI (SNB-19 CNS) was 7.41 µM. The GI50 (OVCAR-8 ovarian) was 4.22 µM, the TGI (OVCAR-8 ovarian) was 9.68 µM and the GI50 (NCI-H226 lung) was 4.47 µM. For the same molecule, the TGI (NCI-H226 lung) was 8.88 µM, the GI50 (SF-295 CNS) was 2.92 µM and the TGI (SF-295 CNS) was 6.25 µM. It also gave a GI50 (SNB-75 CNS) of 4.42 µM and a TGI (SNB-75 CNS) of 8.22 µM.

Molecule `O=C(Nc1nccs1)c1cc2c(cc1Cl)Sc1nccn1S2(=O)=O` has a GI50 (786-0 renal) of 16 µM, a TGI (786-0 renal) of 29.4 µM and a GI50 (EKVX NSCLC) of 20.6 µM. The TGI (EKVX NSCLC) was 44.7 µM, the GI50 (HOP-62 NSCLC) was 14.8 µM and the TGI (HOP-62 NSCLC) was 30.2 µM. It also gave a GI50 (DU-145 prostate) of 16.3 µM, a TGI (DU-145 prostate) of 30 µM and a GI50 (PC-3 prostate) of 16.8 µM. It also gave a TGI (PC-3 prostate) of 33.4 µM, a GI50 (SNB-19 CNS) of 18.9 µM and a TGI (SNB-19 CNS) of 37 µM. It also gave a GI50 (OVCAR-8 ovarian) of 17.2 µM, a TGI (OVCAR-8 ovarian) of 37.1 µM and a GI50 (NCI-H226 lung) of 19.6 µM. It also gave a TGI (NCI-H226 lung) of 35.6 µM, a GI50 (SF-295 CNS) of 18.3 µM and a TGI (SF-295 CNS) of 34.5 µM. The GI50 (SNB-75 CNS) was 18.8 µM and the TGI (SNB-75 CNS) was 35.4 µM.

Molecule `O=C1/C(=C\C(Cl)=C/c2ccc([N+](=O)[O-])cc2)SC(=S)N1CCc1ccc(O)cc1` has a GI50 (786-0 renal) of 0.255 µM, a TGI (786-0 renal) of 0.707 µM and a GI50 (EKVX NSCLC) of 0.94 µM. The TGI (EKVX NSCLC) was 2.21 µM, the GI50 (HOP-62 NSCLC) was 1.41 µM and the TGI (HOP-62 NSCLC) was 4.22 µM. It also gave a GI50 (DU-145 prostate) of 0.471 µM, a TGI (DU-145 prostate) of 1.72 µM and a GI50 (PC-3 prostate) of 0.269 µM. It also gave a TGI (PC-3 prostate) of 0.845 µM, a GI50 (SNB-19 CNS) of 0.507 µM and a TGI (SNB-19 CNS) of 1.86 µM. The GI50 (OVCAR-8 ovarian) was 0.414 µM, the TGI (OVCAR-8 ovarian) was 4.2 µM and the GI50 (NCI-H226 lung) was 1.35 µM. For the same molecule, the TGI (NCI-H226 lung) was 3.48 µM, the GI50 (SF-295 CNS) was 0.501 µM and the TGI (SF-295 CNS) was 1.06 µM. It also gave a GI50 (SNB-75 CNS) of 1.08 µM and a TGI (SNB-75 CNS) of 2.35 µM.

In the case of `Clc1cc(Cl)c(Cl)c(-c2nc(-c3cccnc3)cs2)c1`, the GI50 (786-0 renal) is reported as 12.9 µM, the TGI (786-0 renal) is reported as 29.8 µM and the GI50 (EKVX NSCLC) is reported as 40.2 µM. For the same molecule, the TGI (EKVX NSCLC) was over 100 µM, the GI50 (HOP-62 NSCLC) was 23.5 µM and the TGI (HOP-62 NSCLC) was 83.8 µM. The GI50 (DU-145 prostate) was 2.55 µM, the TGI (DU-145 prostate) was 96.2 µM and the GI50 (PC-3 prostate) was 59.4 µM. The TGI (PC-3 prostate) was over 100 µM, the GI50 (SNB-19 CNS) was 66.2 µM and the TGI (SNB-19 CNS) was over 100 µM. It also gave a GI50 (OVCAR-8 ovarian) of 14.3 µM, a TGI (OVCAR-8 ovarian) of 66.5 µM and a GI50 (NCI-H226 lung) of 27.4 µM. For the same molecule, the TGI (NCI-H226 lung) was 85.8 µM, the GI50 (SF-295 CNS) was 26.2 µM and the TGI (SF-295 CNS) was 70.4 µM. The GI50 (SNB-75 CNS) was 23 µM and the TGI (SNB-75 CNS) was 80.6 µM.

`C/C(CC(=O)NNc1ccc([N+](=O)[O-])cc1)=N\Nc1ccc([N+](=O)[O-])cc1` showed a GI50 (786-0 renal) of 10.4 µM, a TGI (786-0 renal) of over 100 µM and a GI50 (EKVX NSCLC) of 22.4 µM. For the same molecule, the TGI (EKVX NSCLC) was over 100 µM, the GI50 (HOP-62 NSCLC) was 14.2 µM and the TGI (HOP-62 NSCLC) was 38 µM. It also gave a GI50 (DU-145 prostate) of 17.4 µM, a TGI (DU-145 prostate) of 89.9 µM and a GI50 (PC-3 prostate) of 4.26 µM. It also gave a TGI (PC-3 prostate) of over 100 µM, a GI50 (SNB-19 CNS) of 29.7 µM and a TGI (SNB-19 CNS) of over 100 µM. For the same molecule, the GI50 (OVCAR-8 ovarian) was 14.2 µM, the TGI (OVCAR-8 ovarian) was 38.1 µM and the GI50 (NCI-H226 lung) was 17.9 µM. For the same molecule, the TGI (NCI-H226 lung) was over 100 µM, the GI50 (SF-295 CNS) was 2.96 µM and the TGI (SF-295 CNS) was 18.4 µM. For the same molecule, the GI50 (SNB-75 CNS) was 22.1 µM and the TGI (SNB-75 CNS) was 93.5 µM.

Molecule `CCCc1cc2cc(-n3nc(C)c4c3CC(C)(C)CC4=O)cc(NC3CCC(O)CC3)c2c(=O)[nH]1` (stereo not given) has a GI50 (786-0 renal) of 0.874 µM, a TGI (786-0 renal) of over 100 µM and a GI50 (EKVX NSCLC) of 1.53 µM. The TGI (EKVX NSCLC) was over 100 µM, the GI50 (HOP-62 NSCLC) was 0.129 µM and the TGI (HOP-62 NSCLC) was over 100 µM. The GI50 (DU-145 prostate) was 0.0527 µM, the TGI (DU-145 prostate) was over 100 µM and the GI50 (PC-3 prostate) was 0.423 µM. For the same molecule, the TGI (PC-3 prostate) was over 100 µM, the GI50 (SNB-19 CNS) was 0.523 µM and the TGI (SNB-19 CNS) was over 100 µM. It also gave a GI50 (OVCAR-8 ovarian) of 0.519 µM, a TGI (OVCAR-8 ovarian) of over 100 µM and a GI50 (NCI-H226 lung) of 5.36 µM. For the same molecule, the TGI (NCI-H226 lung) was over 100 µM, the GI50 (SF-295 CNS) was 0.307 µM and the TGI (SF-295 CNS) was 2.06 µM. It also gave a GI50 (SNB-75 CNS) of 1.73 µM and a TGI (SNB-75 CNS) of 39.6 µM.

For `Oc1ccc(CNCc2ccccc2)c2cccnc12`, the TGI (786-0 renal) was over 24.7 µM, the TGI (EKVX NSCLC) was over 100 µM and the TGI (HOP-62 NSCLC) was over 51.2 µM. For the same molecule, the TGI (DU-145 prostate) was 38.4 µM, the TGI (PC-3 prostate) was 59.8 µM and the TGI (SNB-19 CNS) was over 100 µM. It also gave a TGI (OVCAR-8 ovarian) of over 100 µM, a TGI (NCI-H226 lung) of 66.7 µM and a TGI (SF-295 CNS) of 61.4 µM. For the same molecule, the TGI (SNB-75 CNS) was 0.229 µM.
